ChEMBL document CHEMBL5579860, “Design and synthesis of novel Thiazolo[5,4-b]pyridine derivatives as potent and selective EGFR-TK inhibitors targeting resistance Mutations in non-small cell lung cancer” (Eur J Med Chem, 2024)
Active and inactive are the calls of the source. No cut-off for these calls is given here.

Assays:
NCI-H1975 = test: Anticancer activity against human NCI-H1975 cells incubated for 72 hrs by MTT assay; format: functional, cell-based; details: NCI-H1975, 72 h
HCC827 [1] = test: Anticancer activity against human HCC827 cells incubated for 72 hrs by MTT assay; format: functional, cell-based; details: HCC827, 72 h
A549 = test: Anticancer activity against human A549 cells incubated for 72 hrs by MTT assay; format: functional, cell-based; details: A549, 72 h
[2] = Cytotoxicity against human BEAS-2B cells; format: toxicity, cell-based
HCC827 [3] = test: Induction of apoptosis in human HCC827 cells assessed as late apoptotic cells at IC50 concentration incubated for 24 to 48 hrs by Annexin V-FITC/PI staining based flow cytometry ( Rvb = 1.6% ); format: functional; details: time 24-48 hrs
[4] = target: Epidermal growth factor receptor (Homo sapiens) (UniProt P00533); test: Inhibition of EGFR autophosphorylation in human HCC827 cells at 0.01 to 1.00 uM incubated for 8 hrs by Western blot analysis; format: cell-based; details: dose 0.01-1 µM
HCC827 [5] = test: Induction of apoptosis in human HCC827 cells assessed as early apoptotic cells at IC50 concentration incubated for 24 to 48 hrs by Annexin V-FITC/PI staining based flow cytometry ( Rvb = 2.0% ); format: functional; details: time 24-48 hrs

Sequence of Epidermal growth factor receptor (Homo sapiens) (P00533 whole entry): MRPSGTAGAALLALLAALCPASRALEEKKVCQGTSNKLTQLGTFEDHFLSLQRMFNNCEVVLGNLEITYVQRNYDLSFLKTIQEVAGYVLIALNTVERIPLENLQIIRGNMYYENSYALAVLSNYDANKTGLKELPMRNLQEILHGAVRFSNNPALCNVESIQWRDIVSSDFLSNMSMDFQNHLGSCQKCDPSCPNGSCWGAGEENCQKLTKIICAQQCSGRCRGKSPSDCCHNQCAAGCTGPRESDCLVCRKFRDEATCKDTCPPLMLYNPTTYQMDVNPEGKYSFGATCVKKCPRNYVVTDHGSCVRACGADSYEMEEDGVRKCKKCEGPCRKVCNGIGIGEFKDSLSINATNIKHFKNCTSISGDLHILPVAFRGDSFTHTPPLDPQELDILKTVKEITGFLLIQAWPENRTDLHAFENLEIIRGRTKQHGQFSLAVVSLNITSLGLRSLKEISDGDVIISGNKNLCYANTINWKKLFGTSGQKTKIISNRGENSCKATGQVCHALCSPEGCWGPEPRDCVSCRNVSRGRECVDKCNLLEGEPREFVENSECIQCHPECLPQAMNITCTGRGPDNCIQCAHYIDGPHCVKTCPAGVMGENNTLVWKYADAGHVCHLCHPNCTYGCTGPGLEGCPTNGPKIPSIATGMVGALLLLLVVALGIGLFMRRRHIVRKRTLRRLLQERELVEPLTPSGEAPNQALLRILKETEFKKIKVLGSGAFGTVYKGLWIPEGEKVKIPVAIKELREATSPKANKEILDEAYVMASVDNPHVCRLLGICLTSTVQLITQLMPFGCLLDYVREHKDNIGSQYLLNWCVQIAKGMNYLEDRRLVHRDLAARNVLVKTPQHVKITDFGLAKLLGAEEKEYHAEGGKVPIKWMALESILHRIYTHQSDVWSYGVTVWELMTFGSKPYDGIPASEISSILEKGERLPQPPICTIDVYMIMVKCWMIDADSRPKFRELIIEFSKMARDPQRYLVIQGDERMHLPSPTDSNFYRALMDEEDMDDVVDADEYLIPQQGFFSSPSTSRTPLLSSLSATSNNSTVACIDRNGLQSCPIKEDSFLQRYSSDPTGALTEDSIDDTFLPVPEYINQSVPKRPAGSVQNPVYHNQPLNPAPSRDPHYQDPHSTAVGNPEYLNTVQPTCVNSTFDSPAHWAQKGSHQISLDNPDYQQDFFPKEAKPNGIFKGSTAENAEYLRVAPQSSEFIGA

Row | SMILES | IC50 (NCI-H1975) [nM] | IC50 (HCC827 [1]) [nM] | IC50 (A549) [nM] | inhibition [4] | IC50 [2] [nM] | Activity (HCC827 [3]) [%] | Activity (HCC827 [5]) [%]
1 | COc1ccc(F)cc1S(=O)(=O)Nc1cccc(-c2nc3cc(-c4ccccc4)cnc3s2)c1C | 6200 | 6080 | 11000 |  |  |  | 
2 | COc1ccc(F)cc1S(=O)(=O)Nc1cccc(-c2nc3cc(-c4cccnc4)cnc3s2)c1C | 6190 | 6010 | 11200 |  |  |  | 
3 | C=CC(=O)Nc1cc(Nc2nccc(-c3cn(C)c4ccccc34)n2)c(OC)cc1N(C)CCN(C)C [OSIMERTINIB] |  | 7 | 860 |  |  |  | 
4 | Cc1c(NS(=O)(=O)c2cccnc2)cccc1-c1nc2cccnc2s1 | 3060 | 2100 | 4100 |  |  |  | 
5 | COc1ccc(F)cc1S(=O)(=O)Nc1cccc(-c2nc3cc(-c4cc[nH]n4)cnc3s2)c1C | 4890 | 5010 | 9340 |  |  |  | 
6 | COc1cc(-c2cnc3sc(-c4cccc(NS(=O)(=O)c5cc(F)ccc5OC)c4C)nc3c2)ccn1 | 4560 | 4420 | 8450 |  |  |  | 
7 | COc1ccc(F)cc1S(=O)(=O)Nc1cccc(-c2nc3cc(CN4CCOCC4)cnc3s2)c1C | 4700 | 4610 | 8540 |  |  |  | 
8 | COc1ccc(F)cc1S(=O)(=O)Nc1cccc(-c2nc3cc(-c4cccs4)cnc3s2)c1C | 4720 | 4880 | 9080 |  |  |  | 
9 | CC(=O)c1ccc(-c2cnc3sc(-c4cccc(NS(=O)(=O)c5cc(F)ccc5F)c4C)nc3c2)cc1 | 360 | 560 | 1420 |  |  |  | 
10 | COc1ccc(F)cc1S(=O)(=O)Nc1cccc(-c2nc3cc(-c4cccc(C(F)(F)F)c4)cnc3s2)c1C | 6110 | 6020 | 10900 |  |  |  | 
11 | Cc1c(NS(=O)(=O)C2CCOCC2)cccc1-c1nc2cccnc2s1 | 3120 | 2110 | 4180 |  |  |  | 
12 | COc1ccc(F)cc1S(=O)(=O)Nc1cccc(-c2nc3cc(CN4CCN(C)CC4)cnc3s2)c1C | 4600 | 4500 | 8500 |  |  |  | 
13 | Cc1c(NS(=O)(=O)Cc2ccccc2)cccc1-c1nc2cccnc2s1 | 3410 | 2240 | 4620 |  |  |  | 
14 | Cc1c(NS(=O)(=O)c2ccccc2OC(F)(F)F)cccc1-c1nc2cccnc2s1 | 2180 | 1520 | 3190 |  |  |  | 
15 | COc1ccc(F)cc1S(=O)(=O)Nc1cccc(-c2nc3cc(-c4cnc(N)nc4)cnc3s2)c1C | 4140 | 4310 | 8120 |  |  |  | 
16 | Cc1c(NS(=O)(=O)c2cc(F)ccc2F)cccc1-c1nc2cc(-c3ccc(C(F)(F)F)nc3)cnc2s1 | 220 | 44 | 980 |  |  |  | 
17 | COc1ccc(F)cc1S(=O)(=O)Nc1cccc(-c2nc3cc(-c4cccnc4OC)cnc3s2)c1C | 4550 | 4400 | 8410 |  |  |  | 
18 | COc1ccc(F)cc1S(=O)(=O)Nc1cccc(-c2nc3cc(-c4cncnc4)cnc3s2)c1C | 4380 | 4330 | 8140 |  |  |  | 
19 | Cc1c(NS(=O)(=O)c2cc(F)ccc2F)cccc1-c1nc2cc(-c3cccc(C(F)(F)F)c3)cnc2s1 | 260 | 92 | 1210 |  |  |  | 
20 | Cc1c(NS(=O)(=O)c2ccc(F)c(C#N)c2)cccc1-c1nc2cccnc2s1 | 2100 | 1460 | 3270 |  |  |  | 
21 | COc1ccc(F)cc1S(=O)(=O)Nc1cccc(-c2nc3cc(-c4ccc(C#N)nc4)cnc3s2)c1C | 4500 | 4380 | 8330 |  |  |  | 
22 | COc1ccc(F)cc1S(=O)(=O)Nc1cccc(-c2nc3cc(-c4ccc(C(C)=O)cc4)cnc3s2)c1C | 6300 | 6140 | 11400 |  |  |  | 
23 | Cc1c(NS(=O)(=O)c2cc(F)ccc2F)cccc1-c1nc2cc(-c3ccc(C#N)nc3)cnc2s1 | 120 | 41 | 910 |  | 37000 |  | 
24 | Cc1c(NS(=O)(=O)c2cccc(Cl)c2)cccc1-c1nc2cccnc2s1 | 2210 | 1590 | 3280 |  |  |  | 
25 | Cc1c(NS(=O)(=O)c2cnn(C)c2)cccc1-c1nc2cccnc2s1 | 3300 | 2180 | 4230 |  |  |  | 
26 | COc1ccc(F)cc1S(=O)(=O)Nc1cccc(-c2nc3cc(-c4ccc(C(F)(F)F)nc4)cnc3s2)c1C | 4440 | 4360 | 8230 |  |  |  | 
27 | COc1cccc(-c2cnc3sc(-c4cccc(NS(=O)(=O)c5cc(F)ccc5OC)c4C)nc3c2)c1 | 7100 | 6210 | 11700 |  |  |  | 
28 | Cc1c(N)cccc1-c1nc2cccnc2s1 | 12700 | 10100 | 29100 |  |  |  | 
29 | Cc1c(NS(=O)(=O)c2ccccc2)cccc1-c1nc2cccnc2s1 | 3320 | 2200 | 4600 |  |  |  | 

Further lines, with some results ahead:

Row | IC50 (NCI-H1975) [nM] | IC50 (HCC827 [1]) [nM] | IC50 (A549) [nM] | inhibition [4] | SMILES | IC50 [2] [nM] | Activity (HCC827 [3]) [%] | Activity (HCC827 [5]) [%]
30 | 220 | 89 | 1160 |  | Cc1c(NS(=O)(=O)c2cc(F)ccc2F)cccc1-c1nc2cc(-c3ccccc3)cnc2s1 |  |  | 
31 | 180 | 42 | 960 |  | COc1cc(-c2cnc3sc(-c4cccc(NS(=O)(=O)c5cc(F)ccc5F)c4C)nc3c2)ccn1 |  |  | 
32 | 1090 | 1160 | 3090 |  | Cc1c(NS(=O)(=O)c2cc(F)ccc2F)cccc1-c1nc2cccnc2s1 |  |  | 
33 | 280 | 94 | 1280 |  | Cc1c(NS(=O)(=O)c2cc(F)ccc2F)cccc1-c1nc2cc(C#N)cnc2s1 |  |  | 
34 | 520 | 490 | 2180 |  | Cc1c(NS(=O)(=O)c2cc(F)ccc2F)cccc1-c1nc2cc(CN3CCCC3)cnc2s1 |  |  | 
35 | 150 | 40 | 920 |  | COc1ncccc1-c1cnc2sc(-c3cccc(NS(=O)(=O)c4cc(F)ccc4F)c3C)nc2c1 | 37100 |  | 
36 | 420 | 700 | 1480 |  | CCc1cnc2sc(-c3cccc(NS(=O)(=O)c4cc(F)ccc4F)c3C)nc2c1 |  |  | 
37 | 6250 | 6110 | 11400 |  | COc1ccc(F)cc1S(=O)(=O)Nc1cccc(-c2nc3cc(C#N)cnc3s2)c1C |  |  | 
38 | 460 | 420 | 2100 |  | Cc1c(NS(=O)(=O)c2cc(F)ccc2F)cccc1-c1nc2cc(CN3CCOCC3)cnc2s1 |  |  | 
39 | 2110 | 1400 | 3170 |  | Cc1c(NS(=O)(=O)c2ccc(F)cc2F)cccc1-c1nc2cccnc2s1 |  |  | 
40 | 90 | 10 | 800 |  | CSc1ncc(-c2cnc3sc(-c4cccc(NS(=O)(=O)c5cc(F)ccc5F)c4C)nc3c2)cn1 | 44100 |  | 
41 | 110 | 21 | 880 |  | Cc1c(NS(=O)(=O)c2cc(F)ccc2F)cccc1-c1nc2cc(-c3cncnc3)cnc2s1 | 42100 |  | 
42 | 300 | 140 | 1340 |  | Cc1c(NS(=O)(=O)c2cc(F)ccc2F)cccc1-c1nc2cc(-c3cc[nH]n3)cnc2s1 |  |  | 
43 | 340 | 720 | 1090 |  | COc1cccc(-c2cnc3sc(-c4cccc(NS(=O)(=O)c5cc(F)ccc5F)c4C)nc3c2)c1 |  |  | 
44 | 770 | 520 | 2310 |  | Cc1c(NS(=O)(=O)c2cc(F)ccc2F)cccc1-c1nc2cc(CN3CCN(C)CC3)cnc2s1 |  |  | 
45 | 300 | 110 | 1330 |  | Cc1c(NS(=O)(=O)c2cc(F)ccc2F)cccc1-c1nc2cc(-c3cccs3)cnc2s1 |  |  | 
46 | 80 | 10 | 820 | Active | Cc1c(NS(=O)(=O)c2cc(F)ccc2F)cccc1-c1nc2cc(-c3cnc(N)nc3)cnc2s1 | 38400 | 8.8 | 31.9
